# Data from US8680159B2, “Bradykinin 1 receptor modulating compounds” (Gruenenthal GmbH, priority 2010, dated 2014).
# Target: T1, B1R receptor of the rat (CHO K1 cells stably transfected with the B1R gene of the rat) (Rattus norvegicus, UniProt P97583)
# T1 construct: expressed in transfected cells; host or cells: CHO K1 cells (Chinese hamster ovary), stably transfected
# T1 sequence (P97583 1-337): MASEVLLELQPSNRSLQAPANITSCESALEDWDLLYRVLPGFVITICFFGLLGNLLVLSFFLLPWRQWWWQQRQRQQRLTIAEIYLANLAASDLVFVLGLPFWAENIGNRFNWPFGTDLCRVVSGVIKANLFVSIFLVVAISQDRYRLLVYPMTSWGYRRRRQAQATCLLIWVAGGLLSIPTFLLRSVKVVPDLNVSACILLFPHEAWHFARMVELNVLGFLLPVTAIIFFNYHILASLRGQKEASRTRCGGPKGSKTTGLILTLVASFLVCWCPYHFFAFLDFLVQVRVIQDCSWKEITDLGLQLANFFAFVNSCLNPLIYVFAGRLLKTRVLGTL
# Test: Functional study on the bradykinin receptor 1 (B1R), Ca2+ fluorescence (Fluo-4) FLIPR/Novostar assay, rB1R cells
# Format: cell-based
# Conditions: CHO-K1, 10 μM, read-out: % Inhibition (r-B1R) at 10 μM
# How it was run: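 Stably transfected CHO K1 cells carrying human or rat B1R were Fluo-4 loaded and Ca2+ fluorescence read by FLIPR or Novostar. Compounds were added first at 10 μM for % activation, then the EC80 agonist was applied after 6-20 min (human: Lys-Des-Arg9-bradykinin; rat: Des-Arg9-bradykinin). % inhibition is relative to maximum achievable inhibition, and IC50 comes from concentration series.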
row,SMILES,inhibition at 10 µM [%]
1,"Cc1cc(N2CCC(N(C)C(=O)c3ccc4c(c3)C(N(C)C(=O)Nc3cccc(Cl)c3Cl)CC4)CC2)cc(C)n1 (stereo not shown) [CC_H-339, 3-[[(2,3-Dichloro-phenyl)-carbamoyl]-methyl-amino]-N-[1-(2,6-dimethyl-pyridin-4-yl)-piperidin-4-yl]-N-methyl-2,3-dihydro-1H-indene-5-carboxylic acid amide]",92
2,"Cc1cc(N2CCC(N(C)C(=O)c3ccc4c(c3)C(N(C)C(=O)Nc3cc(Cl)cc(Cl)c3)CC4)CC2)cc(C)n1 (stereo not shown) [CC_H-341, 3-[[(3,5-Dichloro-phenyl)-carbamoyl]-methyl-amino]-N-[1-(2,6-dimethyl-pyridin-4-yl)-piperidin-4-yl]-N-methyl-2,3-dihydro-1H-indene-5-carboxylic acid amide]",95
3,"Cc1cc(N2CCC(N(C)C(=O)c3ccc4c(c3)C(N(C)C(=O)Nc3ccc(Cl)cc3Cl)CC4)CC2)cc(C)n1 (stereo not shown) [CC_H-342, 3-[[(2,4-Dichlorophenyl)-carbamoyl]-methyl-amino]-N-[1-(2,6-dimethyl-pyridin-4-yl)-piperidin-4-yl]-N-methyl-2,3-dihydro-1H-indene-5-carboxylic acid amide]",107
4,"Cc1cc(N2CCC(N(C)C(=O)c3ccc4c(c3)C(N(C)C(=O)Nc3cc(C(F)(F)F)ccc3Cl)CC4)CC2)cc(C)n1 (stereo not shown) [CC_H-343, 3-[[[2-Chloro-5-(trifluoromethyl)-phenyl]-carbamoyl]-methyl-amino]-N-[1-(2,6-dimethyl-pyridin-4-yl)-piperidin-4-yl]-N-methyl-2,3-dihydro-1H-indene-5-carboxylic acid amide]",67
5,"Cc1cc(N2CCC(N(C)C(=O)c3ccc4c(c3)C(N(C)C(=O)Nc3ccc(Cl)cc3C(F)(F)F)CC4)CC2)cc(C)n1 (stereo not shown) [CC_H-344, 3-[[[4-Chloro-2-(trifluoromethyl)-phenyl]-carbamoyl]-methyl-amino]-N-[1-(2,6-dimethyl-pyridin-4-yl)-piperidin-4-yl]-N-methyl-2,3-dihydro-1H-indene-5-carboxylic acid amide]",90
6,"Cc1cc(N2CCC(N(C)C(=O)c3ccc4c(c3)C(N(C)C(=O)Nc3ccc(F)c(Cl)c3)CC4)CC2)cc(C)n1 (stereo not shown) [CC_H-346, 3-[[(3-Chloro-4-fluoro-phenyl)-carbamoyl]-methyl-amino]-N-[1-(2,6-dimethyl-pyridin-4-yl)-piperidin-4-yl]-N-methyl-2,3-dihydro-1H-indene-5-carboxylic acid amide]",70
7,"Cc1ccc(NC(=O)N(C)C2CCc3ccc(C(=O)N(C)C4CCN(c5cc(C)nc(C)c5)CC4)cc32)c(C)c1 (stereo not shown) [CC_H-347, 3-[[(2,4-Dimethyl-phenyl)-carbamoyl]-methyl-amino]-N-[1-(2,6-dimethyl-pyridin-4-yl)-piperidin-4-yl]-N-methyl-2,3-dihydro-1H-indene-5-carboxylic acid amide]",57
8,"Cc1cc(N2CCC(N(C)C(=O)c3ccc4c(c3)C(N(C)C(=O)N(C)c3ccccc3Cl)CC4)CC2)cc(C)n1 (stereo not shown) [CC_H-349, 3-[[(2-Chlorophenyl)-methyl-carbamoyl]-methyl-amino]-N-[1-(2,6-dimethyl-pyridin-4-yl)-piperidin-4-yl]-N-methyl-2,3-dihydro-1H-indene-5-carboxylic acid amide]",80
9,"Cc1cc(N2CCC(N(C)C(=O)c3ccc4c(c3)C(N(C)C(=O)N(C)c3ccc(Cl)cc3Cl)CC4)CC2)cc(C)n1 (stereo not shown) [CC_H-350, 3[[(2,4-Dichlorophenyl)-methyl-carbamoyl]-methyl-amino]-N-[1-(2,6-dimethyl-pyridin-4-yl)-piperidin-4-yl]-N-methyl-2,3-dihydro-1H-indene-5-carboxylic acid amide]",108
10,"Cc1cc(N2CCC(N(C)C(=O)c3ccc4c(c3)C(N(C)C(=O)CC(C)C)CC4)CC2)cc(C)n1 (stereo not shown) [CC_H-352, N-[1-(2,6-Dimethyl-pyridin-4-yl)-piperidin-4-yl]-N-methyl-3-[methyl-(3-methyl-butanoyl)-amino]-2,3-dihydro-1H-indene-5-carboxylic acid amide]",110
11,"CCCC(=O)N(C)C1CCc2ccc(C(=O)N(C)C3CCN(c4cc(C)nc(C)c4)CC3)cc21 (stereo not shown) [CC_H-353, 3-(Butanoyl-methyl-amino)-N-[1-(2,6-dimethyl-pyridin-4-yl)-piperidin-4-yl]-N-methyl-2,3-dihydro-1H-indene-5-carboxylic acid amide]",84
12,"Cc1cc(N2CCC(N(C)C(=O)c3ccc4c(c3)C(N(C)C(=O)CCC3CCCC3)CC4)CC2)cc(C)n1 (stereo not shown) [CC_H-354, 3-(3-Cyclopentyl-propanoyl-methyl-amino)-N-[1-(2,6-dimethyl-pyridin-4-yl)-piperidin-4-yl]-N-methyl-2,3-dihydro-1H-indene-5-carboxylic acid amide]",110
13,"Cc1cc(N2CCC(N(C)C(=O)c3ccc4c(c3)C(N(C)S(=O)(=O)Cc3cccc(C(F)(F)F)c3)CC4)CC2)cc(C)n1 (stereo not shown) [CC_H-355, N-[1-(2,6-Dimethyl-pyridin-4-yl)-piperidin-4-yl]-N-methyl-3-[methyl-[[3-(trifluoromethyl)phenyl]-methylsulfonyl]-amino]-2,3-dihydro-1H-indene-5-carboxylic acid amide]",96
14,"CN(C(=O)c1ccc2c(c1)C(NC(=O)c1cc(F)ccc1Cl)CC2)C1CCN(c2ccc3cnccc3c2)CC1 (stereo not shown) [CC_H-356, 3-[(2-Chloro-5-fluoro-benzoyl)amino]-N-(1-isoquinolin-6-yl-piperidin-4-yl)-N-methyl-2,3-dihydro-1H-indene-5-carboxylic acid amide]",109

# Continued, values first:
row,inhibition at 10 µM [%],SMILES
1,110,"CN(C(=O)c1ccc2c(c1)C(NC(=O)c1cc(C(F)(F)F)ccc1Cl)CC2)C1CCN(c2ccc3cnccc3c2)CC1 (stereo not shown) [CC_H-357, 3-[[2-Chloro-5-(trifluoromethyl)-benzoyl]amino]-N-(1-isoquinolin-6-yl-piperidin-4-yl)-N-methyl-2,3-dihydro-1H-indene-5-carboxylic acid amide]"
2,111,"Cc1ccc(F)c(C(=O)NC2CCc3ccc(C(=O)N(C)C4CCN(c5ccc6cnccc6c5)CC4)cc32)c1Cl (stereo not shown) [CC_H-358, 3-[(2-Chloro-6-fluoro-3-methyl-benzoyl)amino]-N-(1-isoquinolin-6-yl-piperidin-4-yl)-N-methyl-2,3-dihydro-1H-indene-5-carboxylic acid amide]"
3,110,"CN(C(=O)c1ccc2c(c1)C(NC(=O)c1cc(Cl)ccc1Cl)CC2)C1CCN(c2ccc3cnccc3c2)CC1 (stereo not shown) [CC_H-359, 3-[(2,5-Dichloro-benzoyl)amino]-N-(1-isoquinolin-6-yl-piperidin-4-yl)-N-methyl-2,3-dihydro-1H-indene-5-carboxylic acid amide]"
4,109,"CN(C(=O)c1ccc2c(c1)C(NC(=O)C1CCCCC1)CC2)C1CCN(c2ccc3cnccc3c2)CC1 (stereo not shown) [CC_H-360, 3-(Cyclohexanecarbonylamino)-N-(1-isoquinolin-6-yl-piperidin-4-yl)-N-methyl-2,3-dihydro-1H-indene-5-carboxylic acid amide]"
5,110,"CN(C(=O)c1ccc2c(c1)C(NC(=O)C1CC1)CC2)C1CCN(c2ccc3cnccc3c2)CC1 (stereo not shown) [CC_H-361, 3-(Cyclopropanecarbonylamino)-N-(1-isoquinolin-6-yl-piperidin-4-yl)-N-methyl-2,3-dihydro-1H-indene-5-carboxylic acid amide]"
6,110,"CN(C(=O)c1ccc2c(c1)C(NC(=O)CC(C)(C)C)CC2)C1CCN(c2ccc3cnccc3c2)CC1 (stereo not shown) [CC_H-362, 3-(3,3-Dimethyl-butanoylamino)-N-(1-isoquinolin-6-yl-piperidin-4-yl)-N-methyl-2,3-dihydro-1H-indene-5-carboxylic acid amide]"
7,89,"COCC(=O)NC1CCc2ccc(C(=O)N(C)C3CCN(c4ccc5cnccc5c4)CC3)cc21 (stereo not shown) [CC_H-363, N-(1-Isoquinolin-6-yl-piperidin-4-yl)-3-[(2-methoxy-acetyl)amino]-N-methyl-2,3-dihydro-1H-indene-5-carboxylic acid amide]"
8,111,"CN(C(=O)c1ccc2c(c1)C(NC(=O)c1cccc(C(F)(F)F)c1Cl)CC2)C1CCN(c2ccc3cnccc3c2)CC1 (stereo not shown) [CC_H-364, 3-[[2-Chloro-3-(trifluoromethyl)-benzoyl]amino]-N-(1-isoquinolin-6-yl-piperidin-4-yl)-N-methyl-2,3-dihydro-1H-indene-5-carboxylic acid amide]"
9,64,"CN(C(=O)c1ccc2c(c1)C(NC(=O)Nc1ccccc1Cl)CC2)C1CCN(c2ccc3cnccc3c2)CC1 (stereo not shown) [CC_H-365, 3-[[(2-Chlorophenyl)-carbamoyl]amino]-N-(1-isoquinolin-6-yl-piperidin-4-yl)-N-methyl-2,3-dihydro-1H-indene-5-carboxylic acid amide]"
10,92,"CN(C(=O)c1ccc2c(c1)C(NC(=O)Nc1c(Cl)cccc1Cl)CC2)C1CCN(c2ccc3cnccc3c2)CC1 (stereo not shown) [CC_H-366, 3-[[(2,6-Dichloro-phenyl)-carbamoyl]amino]-N-(1-isoquinolin-6-yl-piperidin-4-yl)-N-methyl-2,3-dihydro-1H-indene-5-carboxylic acid amide]"
11,91,"CN(C(=O)NC1CCc2ccc(C(=O)N(C)C3CCN(c4ccc5cnccc5c4)CC3)cc21)c1ccccc1Cl (stereo not shown) [CC_H-375, 3-[[(2-Chlorophenyl)-methyl-carbamoyl]amino]-N-(1-isoquinolin-6-yl-piperidin-4-yl)-N-methyl-2,3-dihydro-1H-indene-5-carboxylic acid amide]"
